Assay results published in US20250311722A1, “IMPROVED BIOCIDE” (Purgos ApS, priority 2022, published 2025).
Several values for one entry are separate records, joined by “and”; a condition that tells them apart may be missing. Equal values may be shown once. Read-outs that look alike come from different tables or passages of the source.

Key:
[1] = test system: Coniophora puteana; experiment: Wood impregnation with 10 and 20% NBDA, 6 weeks of exposure; assay type: cell-based; details: for Corrected mass loss, Mean / Mass loss, Mean / Corrected mass loss / Mass loss: 6 weeks of exposure; for Corrected mass loss, Mean / Mass loss, Mean: mean of blocks; for Corrected mass loss / Mass loss: single blocks
Description: Below table presents results from impregnation with 10 and 20% NBDA to water phase. It is expected that concentrations of up to at least 35% NBDA and/or APDEA and/or 2,2′-(octylimino)bisethanol are showing promising results.

[2] = test system: Poliovirus; assay type: cell-based
[3] = test system: rat; details: cited from earlier work
[4] = test system: Poria placenta. FPRL 280; experiment: EN 113 test against wood destroying basidiomycetes; assay type: cell-based; details: for Corrected mass loss / Mass loss: single blocks
Description: (§1) EN 113, 2020: Durability of wood and wood-based products-Test method against wood destroying basidiomycetes. Assessment of biocidal efficacy of wood preservatives.
(§2) Assessment of the results shown in table XIV.: The protection provided for the wood by the test preservative at the given concentration is deemed to be adequate if: • a) the corrected mean loss is less than 3.0% (m/m) • b) not more than one specimen has suffered a loss in mass greater than 3.0% (m/m) but less than 5.0% (m/m)
(§3) The impregnation process was carried out on 24-03-2021 with the following conditions:
(§4) Pre-vacuum at 0.1 bar for 30 minutes.
(§5) Pressure of 13 bars for 60 minutes.
(§6) Scots pine sapwood (Pinus sylvestris L.) for brown rot fungi with an average density of 589 kg/m3.
(§7) 4 weeks according to EN 113 at 65% RH and 20° C. until stable mass was obtained.
(§8) Ionising radiation (2× 25 kGy).

[5] = test system: Gloeophyllum trabeum. BAM Ebw. 109; experiment: EN 113 test against wood destroying basidiomycetes; assay type: cell-based; details: for Corrected mass loss / Mass loss: single blocks; for Corrected mass loss, Mean / Mass loss, Mean: mean of blocks
Description: as §1, §2, §3, §4, §5, §6, §7, §8

[6] = test system: Coniophora puteana. BAM Ebw. 15; experiment: EN 113 test against wood destroying basidiomycetes; assay type: cell-based; details: for Corrected mass loss / Mass loss: single blocks
Description: as §1, §2, §3, §4, §5, §6, §7, §8

[7] = test system: Listeria monocytogenes ISI 22; experiment: Minimum bactericidal concentration (MBC); assay type: cell-based; design: MBC data (outgrowth): unit not given here
Description: (§9) Even when no growth is detectable in the MIC tests, it is possible that the microorganisms have survived the treatment i.e., they are not killed but just prevented from growing. In order to test for survivors, MBC plates were subsequently made from the MIC plates.

[8] = test system: Debaryomyces hansenii ISI 12; experiment: Minimum bactericidal concentration (MBC); assay type: cell-based; design: MBC data (outgrowth): unit not given here
Description: as §9

[9] = test system: Salmonella Infantis ISI 170; experiment: Minimum bactericidal concentration (MBC); assay type: cell-based; design: MBC data (outgrowth): unit not given here
Description: as §9

[10] = test system: Leuconostoc mesenteroides ISI 504; experiment: Minimum bactericidal concentration (MBC); assay type: cell-based; design: MBC data (outgrowth): unit not given here
Description: as §9

[11] = concentrations of 0.36%, 0.51%, 0.72%, 1.01% and 1.43%

## CCCCN(CCO)CCO [NBDA, N-butyldiethanolamine]
[1]; impregnation with 10 and 20% NBDA to water phase
  wood protection at high concentrations: strong results
[1]; solution conc. 10.00 % w/w
  Corrected mass loss, Mean: 0.3%
  Mass loss, Mean: −0.4%
  Corrected mass loss: −0.4% and 0.3% and 0.9% and 0.0% and 1.1% and −0.2% and −0.8%
  Mass loss: −0.9% and −0.2% and 0.4% and −0.5% and 0.6% and −0.7% and −1.3%
[1]; solution conc. 20.00 % w/w
  Corrected mass loss, Mean: 0.0%
  Mass loss, Mean: −1.5%
  Corrected mass loss: 0.3% and −0.1% and −0.5% and −0.8% and −0.7% and −0.6%
  Mass loss: −0.7% and −1.1% and −1.6% and −1.8% and −1.7%
[2]; 1.0% NBDA
  Mean log reduction after 60 seconds: 0.26
[2]; 5.0% NBDA
  Mean log reduction after 60 seconds: 0.17
[3]
  LD50 (rat, oral): 4250 mg/kg
[4]; Scots pine sapwood
  Toxic value, Retention of product: 4.87-7.02 kg/m^3
  Toxic value, Solution conc.: 0.72-1.01 % w/w
[4]; [11]
  fungicide for preventing wood destruction: effective as a fungicide
[4]; solution conc. 0.36% w/w
  Corrected mass loss, Mean: 14.2%
  Mass loss, Mean: 14.4%
  Corrected mass loss: 14.0% and 19.2% and 11.4% and 12.3%
  Mass loss: 14.2% and 19.4% and 11.6% and 12.5%
[4]; solution conc. 0.51% w/w
  Corrected mass loss, Mean: 14.6%
  Mass loss, Mean: 14.8%
  Corrected mass loss: 14.0% and 17.1% and 14.2% and 13.3%
  Mass loss: 14.2% and 17.3% and 14.4% and 13.5%
[4]; solution conc. 0.72% w/w
  Corrected mass loss, Mean: 8.2%
  Mass loss, Mean: 7.8%
  Corrected mass loss: 9.2% and 9.0% and 6.3% and 8.2%
  Mass loss: 8.9% and 8.7% and 5.9% and 7.9%
[4]; solution conc. 1.01% w/w
  Corrected mass loss, Mean: 1.4%
  Mass loss, Mean: 1.0%
  Corrected mass loss: 2.5% and 0.1% and 1.3% and 1.9%
  Mass loss: 2.0% and −0.3% and 0.8% and 1.4%
[4]; solution conc. 1.43% w/w
  Corrected mass loss, Mean: 1.5%
  Mass loss, Mean: 0.4%
  Corrected mass loss: 0.5% and 4.1% and 0.7% and 0.6%
  Mass loss: −0.6% and 3.0% and −0.4% and −0.5%
[5]; Scots pine sapwood
  Toxic value, Retention of product: 6.85-10.03 kg/m^3
  Toxic value, Solution conc.: 1.01-1.43 % w/w
[5]; [11]
  fungicide for preventing wood destruction: effective as a fungicide
[5]; solution conc. 0.36% w/w
  Corrected mass loss: 44.8% and 30.6% and 32.5% and 33.8%
  Mass loss: 45.0% and 30.8% and 32.7% and 34.0%
[5]; solution conc. 0.36 % w/w
  Corrected mass loss, Mean: 35.4%
  Mass loss, Mean: 35.6%
[5]; solution conc. 0.51% w/w
  Corrected mass loss: 34.8% and 29.4% and 36.4% and 31.1%
  Mass loss: 35.0% and 29.6% and 36.6% and 31.3%
[5]; solution conc. 0.51 % w/w
  Corrected mass loss, Mean: 32.9%
  Mass loss, Mean: 33.1%
[5]; solution conc. 0.72% w/w
  Corrected mass loss: 30.9% and 33.1% and 34.2% and 26.5%
  Mass loss: 30.6% and 32.7% and 33.8% and 26.1%
[5]; solution conc. 0.72 % w/w
  Corrected mass loss, Mean: 31.2%
  Mass loss, Mean: 30.8%
[5]; solution conc. 1.01 % w/w
  Corrected mass loss, Mean: 11.4%
  Mass loss, Mean: 11.0%
[5]; solution conc. 1.43% w/w
  Corrected mass loss: 0.7% and 0.3% and 2.0%
  Mass loss: −0.4% and −0.8% and 1.0% and 0.9%
[5]; solution conc. 1.43 % w/w
  Corrected mass loss, Mean: 1.3%
  Mass loss, Mean: 0.2%
[6]; Scots pine sapwood
  Toxic value, Retention of product: >9.86 kg/m^3
  Toxic value, Solution conc.: >1.43 % w/w
[6]; solution conc. 0.36% w/w
  Corrected mass loss, Mean: 36.6%
  Mass loss, Mean: 36.8%
  Corrected mass loss: 39.2% and 27.2% and 47.6% and 32.3%
  Mass loss: 39.4% and 27.4% and 47.8% and 32.5%
[6]; solution conc. 0.51% w/w
  Corrected mass loss, Mean: 38.3%
  Mass loss, Mean: 38.5%
  Corrected mass loss: 42.4% and 39.5% and 34.0% and 37.2%
  Mass loss: 42.6% and 39.7% and 34.2% and 37.4%
[6]; solution conc. 0.72% w/w
  Corrected mass loss, Mean: 37.4%
  Mass loss, Mean: 37.1%
  Corrected mass loss: 29.8% and 43.3% and 36.9% and 39.7%
  Mass loss: 29.5% and 43.0% and 36.6% and 39.3%
[6]; solution conc. 1.01% w/w
  Corrected mass loss, Mean: 40.4%
  Mass loss, Mean: 39.9%
  Corrected mass loss: 37.2% and 41.8% and 45.1% and 37.3%
  Mass loss: 36.7% and 41.4% and 44.6% and 36.8%
[6]; solution conc. 1.43% w/w
  Corrected mass loss, Mean: 36.1%
  Mass loss, Mean: 35.0%
  Corrected mass loss: 31.1% and 37.2% and 38.4% and 37.8%
  Mass loss: 30.0% and 36.2% and 37.3% and 36.7%
[7]
  MBC (%): 2.5%
[7]; 0.02% NBDA
  MBC data (outgrowth): 1.197 and 1.009
[7]; 0.04% NBDA
  MBC data (outgrowth): 1.195 and 1.097
[7]; 0.08% NBDA
  MBC data (outgrowth): 1.201 and 1.059
[7]; 0.16% NBDA
  MBC data (outgrowth): 1.216 and 1.141
[7]; 0.31% NBDA
  MBC data (outgrowth): 1.320 and 1.310
[7]; 0.63% NBDA
  MBC data (outgrowth): 1.496 and 1.507
[7]; 1.25% NBDA
  MBC data (outgrowth): 1.517 and 1.533
[7]; 2.50% NBDA
  MBC data (outgrowth): 0.065 and 0.070
[7]; 5.00% NBDA
  MBC data (outgrowth): 0.060 and 0.062
[8]
  MBC (%): 2.5%
[8]; 0.02% NBDA
  MBC data (outgrowth): 1.491 and 1.495
[8]; 0.04% NBDA
  MBC data (outgrowth): 1.493 and 1.461
[8]; 0.08% NBDA
  MBC data (outgrowth): 1.472
[8]; 0.16% NBDA
  MBC data (outgrowth): 1.473 and 1.469
[8]; 0.31% NBDA
  MBC data (outgrowth): 1.432 and 1.393
[8]; 0.63% NBDA
  MBC data (outgrowth): 1.387 and 1.458
[8]; 1.25% NBDA
  MBC data (outgrowth): 1.333 and 1.309
[8]; 2.50% NBDA
  MBC data (outgrowth): 0.074
[8]; 5.00% NBDA
  MBC data (outgrowth): 0.068 and 0.069
[9]
  MBC (%): 1.25%
[9]; 0.02% NBDA
  MBC data (outgrowth): 1.732 and 1.806
[9]; 0.04% NBDA
  MBC data (outgrowth): 1.858 and 1.853
[9]; 0.08% NBDA
  MBC data (outgrowth): 1.841 and 1.791
[9]; 0.16% NBDA
  MBC data (outgrowth): 1.826 and 1.827
[9]; 0.31% NBDA
  MBC data (outgrowth): 1.786 and 1.488
[9]; 0.63% NBDA
  MBC data (outgrowth): 1.806 and 1.787
[9]; 1.25% NBDA
  MBC data (outgrowth): 0.074 and 0.071
[9]; 2.50% NBDA
  MBC data (outgrowth): 0.068 and 0.070
[9]; 5.00% NBDA
  MBC data (outgrowth): 0.066 and 0.060
[10]
  MBC (%): 0.63%
[10]; 0.02% NBDA
  MBC data (outgrowth): 1.449 and 1.467
[10]; 0.04% NBDA
  MBC data (outgrowth): 1.449 and 1.468
[10]; 0.08% NBDA
  MBC data (outgrowth): 1.413 and 1.467
[10]; 0.16% NBDA
  MBC data (outgrowth): 1.337 and 1.425
[10]; 0.31% NBDA
  MBC data (outgrowth): 1.452 and 1.448
[10]; 1.25% NBDA
  MBC data (outgrowth): 0.075
[10]; 2.50% NBDA
  MBC data (outgrowth): 0.076 and 0.077
[10]; 5.00% NBDA
  MBC data (outgrowth): 0.066 and 0.067
